One assay concerns A549. Description: Cytotoxicity against human A549 cells by MTT assay. In kind it is functional, cell-based. (In general: Tetrazolium assays rely on reduction of a dye to a coloured formazan, in cell work by metabolically active cells.)
A short description of assay [1]: Cytotoxicity against human BGC-7901 cells by MTT assay. In kind it is functional, cell-based.
A further assay relates to SW480. The experiment in a line: Cytotoxicity against human SW480 cells by MTT assay. The assay is classed as functional, cell-based.
Another assay deals with HL-60. The experiment in a line: Cytotoxicity against human HL60 cells by MTT assay. In kind it is functional, cell-based.
In a further assay the test system is Bel-7402. The experiment in a line: Cytotoxicity against human BEL-7402 cells by MTT assay. The assay is classed as functional, cell-based.
For assay [2], the system named is B16. The experiment in a line: Cytotoxicity against mouse B16 cells by MTT assay. The assay is classed as functional, cell-based.
The subject of assay [3] is H22. Description: Antitumor activity in mouse H22 cell xenografted mouse at 20 mg/kg/day, ip after 4 days. The assay is classed as functional. To be noted: 96 h, route intraperitoneal.
In assay [4] the test system is B16. The experiment in a line: Antitumor activity in mouse B16 cell xenografted mouse at 20 mg/kg/day, ip after 4 days. In kind it is functional. To be noted: 96 h, route intraperitoneal.
Assay [5] relates to H22. Description: Antitumor activity in mouse H22 cell xenografted mouse at 20 mg/kg/day, iv after 4 days. Particulars: 96 h, read-out: INH.
Assay [6] relates to B16. The experiment in a line: Antitumor activity in mouse B16 cell xenografted mouse at 20 mg/kg/day, iv after 4 days. To be noted: B16, 96 h. In kind it is functional.

The values below come from ChEMBL document CHEMBL1155921, “Synthesis and biological evaluation of novel 1-O- and 14-O-derivatives of oridonin as potential anticancer drug candidates” (Bioorg Med Chem Lett, 2008).

One may read the IC50 as the midpoint of a concentration-inhibition curve.

For the compound `C=C1C(=O)[C@]23[C@H](OC(=O)C(Cc4ccccc4)NC(=O)/C=C/C(=O)O)[C@@H]1CC[C@H]2[C@@]12CO[C@]3(O)[C@@H](O)[C@@H]1C(C)(C)CCC2=O` (stereo partly specified), the IC50 in the assay on A549 was determined as 3.46 µM; in assay [1], 3.02 µM; with SW480, 2.89 µM; in the assay with HL-60, 2.07 µM; in the assay with Bel-7402 (read-out: IC50), 1 µM; in the assay on B16 [2] it was 8.22 µM. The inhibition in vivo at 20 mg/kg/day in the assay on H22 [3] turned out to be 62.5%; with B16 [4] it was 61.2%.
`C=C1C(=O)[C@]23[C@H](OC(=O)C(Cc4ccccc4)NC(=O)CCCCC(=O)O)[C@@H]1CC[C@H]2[C@@]12CO[C@]3(O)[C@@H](O)[C@@H]1C(C)(C)CCC2=O` (stereo partly specified): the IC50 is 8.06 µM in the assay on A549; 7.05 µM in assay [1]; 7.3 µM in the assay with SW480; 6.24 µM in the assay on HL-60; 12.8 µM in the assay with Bel-7402 (read-out: IC50); 13.9 µM in the assay on B16 [2].
On to `C=C1C(=O)[C@]23[C@H](OC(=O)CNC(=O)CCC(=O)O)[C@@H]1CC[C@H]2[C@@]12CO[C@]3(O)[C@@H](O)[C@@H]1C(C)(C)CCC2=O`, for which the IC50 in the assay with A549 was 11.5 µM; in [1], 15.6 µM; in the assay with SW480 it was 10.2 µM; in the assay on HL-60, 7.76 µM; in the assay with Bel-7402 (read-out: IC50), 2.09 µM; in the assay on B16 [2], 8.57 µM.
`C=C1C(=O)[C@]23[C@H](OC(=O)C(N)Cc4ccccc4)[C@@H]1CC[C@H]2[C@@]12CO[C@]3(O)[C@@H](O)[C@@H]1C(C)(C)CCC2=O` (stereo partly specified): the half-inhibitory concentration (IC50) was 22.2 µM with A549; 10.5 µM in assay [1]; 15 µM in the assay with SW480; 27.5 µM in the assay with HL-60; 29.6 µM in the assay with Bel-7402 (read-out: IC50); 10.2 µM in the assay with B16 [2].
On to `C=C1C(=O)[C@]23[C@H](OC(=O)CN)[C@@H]1CC[C@H]2[C@@]12CO[C@]3(O)[C@@H](O)[C@@H]1C(C)(C)CC[C@@H]2OC(C)=O`, for which the 50% inhibitory concentration (IC50) worked out at 11 µM in the assay with A549; 18.2 µM in [1]; 22.3 µM with SW480; 12.3 µM with HL-60; 17.9 µM in the assay on Bel-7402 (read-out: IC50); 12.4 µM in the assay with B16 [2].
With `C=C1C(=O)[C@]23[C@H](OC(=O)CNC(=O)c4ccccc4C(=O)O)[C@@H]1CC[C@H]2[C@@]12CO[C@]3(O)[C@@H](O)[C@@H]1C(C)(C)CC[C@@H]2OS(=O)(=O)CCC`, the IC50 came to 22.7 µM in the assay on A549; 20.9 µM in assay [1]; 25.4 µM in the assay with SW480; 13.8 µM in the assay on HL-60; 39.1 µM in the assay with Bel-7402 (read-out: IC50); 17.6 µM in the assay on B16 [2].
`C=C1C(=O)[C@]23[C@H](OC(=O)CNC(=O)CCCCC(=O)O)[C@@H]1CC[C@H]2[C@@]12CO[C@]3(O)[C@@H](O)[C@@H]1C(C)(C)CC[C@@H]2OS(=O)(=O)CCC`: the IC50 in the assay with A549 was found to be 14 µM; in assay [1] it was 15.3 µM; with SW480, 11.2 µM; in the assay with HL-60 it was 9.5 µM; in the assay on Bel-7402 (read-out: IC50), 24.8 µM; in the assay on B16 [2], 13 µM.
With `C=C1C(=O)[C@]23[C@H](OC(=O)CNC(=O)CCCCC(=O)O)[C@@H]1CC[C@H]2[C@@]12CO[C@]3(O)[C@@H](O)[C@@H]1C(C)(C)CCC2=O`, the IC50 in the assay with A549 amounted to 7.47 µM; in [1], 15.1 µM; in the assay on SW480 it was 10.2 µM; in the assay with HL-60, 8.65 µM; with Bel-7402 (read-out: IC50), 13.8 µM; in the assay on B16 [2], 16.4 µM.
Turning to `C=C1C(=O)[C@]23[C@H](OC(=O)C(Cc4ccccc4)NC(=O)CCC(=O)O)[C@@H]1CC[C@H]2[C@@]12CO[C@]3(O)[C@@H](O)[C@@H]1C(C)(C)CCC2=O` (stereo partly specified), the IC50 worked out at 17.1 µM in the assay on A549; 5.96 µM in assay [1]; 12.9 µM in the assay with SW480; 2.31 µM in the assay with HL-60; 6.5 µM in the assay with Bel-7402 (read-out: IC50); 14.8 µM in the assay on B16 [2]. Further, the inhibition in vivo at 20 mg/kg/day stood at 59.1% in the assay with H22 [3] and 56.6% with B16 [4].
On to `C=C1C(=O)[C@]23[C@H](OC(=O)CNC(=O)CCCCC(=O)O)[C@@H]1CC[C@H]2[C@@]12CO[C@]3(O)[C@@H](O)[C@@H]1C(C)(C)CC[C@@H]2OC(C)=O`, for which the half-inhibitory concentration (IC50) in the assay with A549 is 10.5 µM; in assay [1] it was 13.2 µM; in the assay on SW480 it was 10.7 µM; in the assay with HL-60, 5.3 µM; in the assay on Bel-7402 (read-out: IC50) it was 8.26 µM; with B16 [2], 12.5 µM.
As for `C=C1C(=O)[C@]23[C@H](OC(=O)CNC(=O)/C=C/C(=O)O)[C@@H]1CC[C@H]2[C@@]12CO[C@]3(O)[C@@H](O)[C@@H]1C(C)(C)CC[C@@H]2OS(=O)(=O)CCC`, the IC50 came out at 1.33 µM with A549; 5.52 µM in assay [1]; 14.7 µM in the assay on SW480; 1.97 µM in the assay on HL-60; 19.1 µM with Bel-7402 (read-out: IC50); 5.66 µM in the assay with B16 [2].
Turning to `C=C1C(=O)[C@]23[C@H](OC(=O)CNC(=O)/C=C/C(=O)O)[C@@H]1CC[C@H]2[C@@]12CO[C@]3(O)[C@@H](O)[C@@H]1C(C)(C)CC[C@@H]2OC(C)=O`, the IC50 with A549 amounted to 2.6 µM; in assay [1] it was 2.78 µM; with SW480, 2.6 µM; in the assay with HL-60, 0.84 µM; in the assay with Bel-7402 (read-out: IC50) it was 1 µM; with B16 [2], 0.93 µM. Also, the inhibition in vivo at 20 mg/kg/day with H22 [3] was 64.9%; in the assay on B16 [4], 69.9%.
Take `C=C1C(=O)[C@]23[C@H](OC(=O)CN)[C@@H]1CC[C@H]2[C@@]12CO[C@]3(O)[C@@H](O)[C@@H]1C(C)(C)CCC2=O`: the half-maximal inhibitory concentration (IC50) was 20.6 µM with A549; 20.9 µM in assay [1]; 28.4 µM in the assay on SW480; 24.8 µM in the assay with HL-60; 30.3 µM with Bel-7402 (read-out: IC50); 19.1 µM with B16 [2].
`C=C1C(=O)[C@]23[C@H](OC(=O)CN)[C@@H]1CC[C@H]2[C@@]12CO[C@]3(O)[C@@H](O)[C@@H]1C(C)(C)CC[C@@H]2OS(=O)(=O)CCC`: the IC50 with A549 is 16.3 µM; in assay [1], 15.9 µM; in the assay with SW480 it was 24.7 µM; with HL-60, 19.8 µM; in the assay with Bel-7402 (read-out: IC50), 20.2 µM; in the assay with B16 [2], 21.7 µM.
With `O=P1(N(CCCl)CCCl)NCCCO1` (stereo unspecified) [CYCLOPHOSPHAMIDE ANHYDROUS], the inhibition in vivo at 20 mg/kg/day in the assay with H22 [5] turned out to be 54.3%.
Consider `O=c1[nH]cc(F)c(=O)[nH]1` [FLUOROURACIL], for which the 50% inhibitory concentration (IC50) in the assay with A549 was determined as 10.8 µM; in [1], 16.4 µM; in the assay with SW480 it was 13.2 µM; in the assay with HL-60, 21.4 µM; in the assay on Bel-7402 it was 14.4 µM; in the assay with B16 [2], 8.73 µM. Moreover, in the assay with B16 [6], the inhibition in vivo at 20 mg/kg/day came to 73.5%.
For `C=C1C(=O)[C@]23[C@H](O)[C@H]1CC[C@H]2[C@@]12CO[C@]3(O)[C@@H](O)[C@@H]1C(C)(C)CC[C@@H]2O` [ORIDONIN], the IC50 in the assay on A549 was 27.2 µM; in [1], 28.3 µM; with SW480 it was 31.4 µM; with HL-60 it was 32.8 µM; in the assay with Bel-7402 (read-out: IC50), 39.8 µM; with B16 [2], 26.2 µM. The inhibition in vivo at 20 mg/kg/day in the assay on H22 [3] is 42.7%; in the assay on B16 [4], 45.9%.
